Laboratory results as given in patent publication US12698281B2, “Thiazole derivatives for therapeutic use” (NIMML Institute, priority 2022, dated 2026).

Columns and labels:
[1] = tested on: CD4+ T cells; assay: CD4+ T cell culture, CD4+ IFNγ+ cells by flow cytometry; format: cell-based, mice; conditions: 24 hours, PMA and ionomycin final 6 hours, relative to vehicle treated wells
Experimental: CD4+ T cells are central to the generation of inflammation in a variety of conductions. In addition, CD4+ T cells are primary responders to the IL-18 cytokine. As such, CD4+ T cells were cultured in vitro in the presence of selected compounds to test for pharmacological activity.
CD4+ T cell culture. Spleens were excised from mice and crushed between frosted microscope slides. Cellular suspension was filtered, centrifuged and exposed to hypotonic lysis to remove red blood cells. CD4+ T cells were enriched by magnetic sorting. Cells were re-suspended in IMDM and cultured in CD3- and CD28-coated round bottom wells. Cells were treated with indicated compounds at 10 and 100 nM or vehicle for 24 hours. During the final 6 hours, cells were stimulated with phorbol myristate acetate and ionomycin. Cells were then collected and stained with antibodies to detect CD45+ CD4+ IFNγ+ cells by flow cytometry. Data was acquired using a FACS Celesta flow cytometer with FACSDiva software.

[2] = tested on: DSS colitis model; assay: DSS colitis model; format: in vivo, mice; conditions: oral, 20 mg/kg once daily, DSS in drinking water for seven days; for proportion of CD4+ IFNγ+ cells in the colonic lamina propria: flow cytometry; for severity of disease by macroscopic scoring of the colon: score 0 to 4, relative to vehicle group
From the text: Inflammation of the gastrointestinal tract can be caused by numerous factors including food antigens, infectious agents, autoimmunity, or radiation. The dextran sulfate sodium (DSS) model provides a model system where the epithelial barrier is disrupted in the distal intestine allowing for translocation of bacteria and generation of immune responses. DSS model. Mice were given DSS in drinking water for seven days. At project initiation, mice were approximately 8 weeks of age and began dosing 24 hours after being placed on DSS water. Treatments were prepared within a 0.5% methylcellulose solution. The dosage used was 20 mg/kg delivered once daily. At conclusion, colons were scored macroscopically for presence of lesions, blood, stool consistency, mucosal thickening, friability and length on a summarized score from 0 to 4. Flow cytometry. Colons were collected into RPMI/FBS buffer containing collagenase and DNase for digestion. Tissues were digested for 60 minutes under stifling at 37° C. Resultant cellular suspensions were filtered through 100 um strainers, centrifuged and washed in fresh RPMI. Following filtration, immune cells were purified by Percoll gradient of the cell-containing 40% Percoll overlayed onto 70% Percoll solution. After centrifugation, interphase was collected and washed to obtain enriched colonic lamina propria cell fractions. Cells were labeled with mixtures of extracellular and intracellular antibodies to quantify the presence of CD45+ CD3+ CD4+ CD8− IFNγ+ cells. Data was acquired using a FACS Celesta flow cytometer with FACSDiva software.

Row | SMILES | proportion of CD4+ IFNγ+ cells ([1]; 100 nM) | proportion of CD4+ IFNγ+ cells in the colonic lamina propria [2] | severity of disease by macroscopic scoring of the colon [2] | proportion of CD4+ IFNγ+ cells ([1]; 10 nM)
1 | O=C1C=C(C(=O)N2CCO[C@H](C(=O)c3ncc(-c4ccccc4F)s3)C2)NN2CC=CC12 (stereo partly drawn) [Compound 69, 2-((S)-2-(5-(2-fluorophenyl)thiazole-2-carbonyl)morpholine-4-carbonyl)-4a,7-dihydropyrrolo[1,2-b]pyridazin-4(1H)-one] | significantly reduced | – | – | –
2 | O=C(c1ncc(-c2ncccc2F)s1)[C@@H]1CN(C(=O)c2cc(F)ccn2)CCO1 [Compound 40, 4-fluoro-pyridin-2-yl(2-(S)-(5-(3-fluoropyridin-2-yl)thiazol-2-carbonyl)-morpholin-4-yl)methanone] | significantly reduced | reducing | reduced | significantly reduced
3 | COc1cc(-c2cnc(C(=O)C3CCN(C(=O)c4cnnc5ccccc45)CC3)s2)ccc1O [Compound 11, cinnolin-4-yl(4-(5-(4-hydroxy-3-methoxyphenyl)thiazole-2-carbonyl)-piperidin-1-yl)methanone] | significantly reduced | reducing | reduced | significantly reduced
4 | O=C(c1ncc(-c2ncccc2F)s1)[C@@H]1CN(C(=O)c2cnnc3ccccc23)CCO1 [Compound 37, cinnolin-4-yl(2-(S)-(5-(3-fluoropyridin-2-yl)thiazol-2-carbonyl)-morpholin-4-yl)methanone] | significantly reduced | reducing | reduced | –
5 | O=C(c1ncc(-c2ncccc2F)s1)[C@@H]1CN(C(=O)c2cc(F)c(F)cn2)CCO1 [Compound 34, 4,5-difluoro-pyridin-2-yl(2-(S)-(5-(3-fluoropyridin-2-yl)thiazol-2-carbonyl)-morpholin-4-yl)methanone] | significantly reduced | – | – | significantly reduced
